We go through seven substances from patent US20240270821A1, “GIP/GLP1/GCG TRI-RECEPTOR AGONISTS AND USES THEREOF” (priority 2023, published 2024).

Assay type in all cases: cell-based
Assay [1] addresses T1, hGIPR (Homo sapiens, UniProt P48546).
T1 sequence (P48546 22-466): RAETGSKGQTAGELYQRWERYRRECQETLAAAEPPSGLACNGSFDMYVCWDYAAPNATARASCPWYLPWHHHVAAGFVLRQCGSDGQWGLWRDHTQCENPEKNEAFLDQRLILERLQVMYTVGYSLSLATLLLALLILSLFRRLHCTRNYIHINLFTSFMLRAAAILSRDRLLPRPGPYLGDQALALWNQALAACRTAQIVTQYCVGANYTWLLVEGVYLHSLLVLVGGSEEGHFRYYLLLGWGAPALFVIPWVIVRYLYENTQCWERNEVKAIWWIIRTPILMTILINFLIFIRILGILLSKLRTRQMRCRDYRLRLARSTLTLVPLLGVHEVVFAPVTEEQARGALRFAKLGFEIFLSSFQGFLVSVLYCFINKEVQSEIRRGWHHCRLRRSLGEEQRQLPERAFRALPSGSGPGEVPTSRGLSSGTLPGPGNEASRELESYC
Nature of the assay: Functional cAMP activity in the presence of 1% HSA. The conditions noted are these: read-out: cAMP Rel EC50, hGIPR.

In assay [2] the target is T2, hGLP-1R (Homo sapiens, UniProt P43220). The experiment in a line: Functional cAMP activity in the presence of 1% HSA. As to conditions: read-out: cAMP Rel EC50, hGLP-1R.
Assay [3] concerns the target human GcgR (Homo sapiens, UniProt P47871). The experiment in a line: Functional cAMP activity in the presence of 1% HSA. As to conditions: read-out: cAMP Rel EC50, hGcgR.
For assay [4], the target named is T1, hGIPR. Nature of the assay: Functional cAMP activation in the presence of 0.1% casein (no HSA). As to conditions: in the presence of 0.1% casein (no HSA); geometric mean; read-out: Relative cAMP EC50, hGIPR.
Assay [5] deals with T2, hGLP-1R. Described as above. As to conditions: in the presence of 0.1% casein (no HSA); geometric mean; read-out: Relative cAMP EC50, hGLP-1R.
For assay [6], the target named is hGcgR (Homo sapiens, UniProt P47871). Described as above. The conditions noted are these: in the presence of 0.1% casein (no HSA); geometric mean; read-out: Relative cAMP EC50, hGcgR.
For assay [7], the target named is human GLP1-R (Homo sapiens, UniProt P43220). The experiment in a line: GLP1-R internalization assay in HEK293 cells. The conditions noted are these: for EC50: HEK293 cells expressing SNAP-GLP-1R, read-out: GLP1R Internalization EC50; for Internalization % TOP: normalized to maximum concentration of GLP-1 (100%).

Starred links: 1 amine or outer side, 2 acyl side, 3 side chain; linkers in the order of their positions; H or OH if unused. Non-standard residues stand in square brackets, D forms with d. Groups on a side chain read outwards from the residue. *: point of attachment. C20 diacid = O=C(O)CCCCCCCCCCCCCCCCCCC(=O)*; C18 diacid = O=C(O)CCCCCCCCCCCCCCCCC(=O)*; γGlu = O=C(O)[C@H](CCC(=O)[*:2])N[*:1]; αMeL = CC(C)C[C@](C)(N)C(=O)O; Orn = NCCC[C@H](N)C(=O)O; AEEA = NCCOCCOCC(=O)O; Aib = CC(C)(N)C(=O)O
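Wherever Relative cAMP EC50, hGIPR is given: intracellular cAMP rise after 30 min at 37 °C read by HTRF against a standard curve, scaled between buffer alone (0%) and top control ligand concentration (100%), four-parameter fit.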
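Wherever Relative cAMP EC50, hGLP-1R is given: intracellular cAMP rise after 30 min at 37 °C read by HTRF, normalized between buffer only (0%) and maximal control ligand (100%), four-parameter variable-slope fit.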
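Wherever Relative cAMP EC50, hGcgR is given: intracellular cAMP rise after 30 min at 37 °C, read by HTRF against a cAMP standard curve, scaled from buffer only (0%) to maximal control ligand response (100%).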

human GLP1-R, sequence (P43220 24-463): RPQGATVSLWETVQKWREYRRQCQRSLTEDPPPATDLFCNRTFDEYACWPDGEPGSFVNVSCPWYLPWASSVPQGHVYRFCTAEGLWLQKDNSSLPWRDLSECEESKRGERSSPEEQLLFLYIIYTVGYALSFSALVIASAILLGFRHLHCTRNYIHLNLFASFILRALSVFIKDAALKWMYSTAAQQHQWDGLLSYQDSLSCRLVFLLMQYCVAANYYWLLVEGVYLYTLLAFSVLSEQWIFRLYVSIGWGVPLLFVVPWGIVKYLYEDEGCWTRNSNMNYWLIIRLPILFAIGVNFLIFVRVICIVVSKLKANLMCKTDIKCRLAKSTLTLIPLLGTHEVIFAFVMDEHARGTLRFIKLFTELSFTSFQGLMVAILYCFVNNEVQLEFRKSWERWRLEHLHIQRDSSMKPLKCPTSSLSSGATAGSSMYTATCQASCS
T2 sequence (P43220 24-463): as above
human GcgR, sequence (P47871 26-477): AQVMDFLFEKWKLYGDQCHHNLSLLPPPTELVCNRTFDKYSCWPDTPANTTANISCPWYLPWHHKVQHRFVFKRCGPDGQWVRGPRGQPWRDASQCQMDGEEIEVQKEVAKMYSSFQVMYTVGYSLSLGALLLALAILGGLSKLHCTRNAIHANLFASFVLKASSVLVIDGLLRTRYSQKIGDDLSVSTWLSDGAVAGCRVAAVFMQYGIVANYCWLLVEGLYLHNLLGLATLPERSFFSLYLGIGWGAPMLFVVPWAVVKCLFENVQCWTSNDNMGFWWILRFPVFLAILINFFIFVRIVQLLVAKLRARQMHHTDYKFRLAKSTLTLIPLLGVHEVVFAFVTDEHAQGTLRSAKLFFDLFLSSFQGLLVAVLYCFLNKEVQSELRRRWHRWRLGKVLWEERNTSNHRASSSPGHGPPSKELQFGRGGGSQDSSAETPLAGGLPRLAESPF
hGcgR, sequence (P47871 26-477): as above

One may read the EC50 as the midpoint of the concentration-response curve. For the substance “H-Y[Aib]QGTFTSDFSK[αMeL]LDKK([AEEA-γGlu-C20 diacid])AQ[Aib]AFIEYLLAGGPSSGAPPPGGS-NH2 [Example 16]”, the EC50 in assay [1] came out at 35.9 nM; in assay [2], 281 nM; in assay [3], 1660 nM; in assay [4], 0.217 nM; in assay [5], 1.54 nM; in assay [6] it was 8.84 nM. Besides, the EC50 in assay [7] stood at 37.8 nM. In assay [7], the “Internalization % TOP” value is given as 74.6%.

On to “H-Y[Aib]QGTFTSDFSK[αMeL]LDKK([AEEA-γGlu-C18 diacid])AQ[Aib]AFIEYLIE[Aib]GESSGAPPPSGE-NH2 [Example 217]”, for which the EC50 in assay [1] was 15 nM; in assay [2], 130 nM; in assay [3], 1570 nM; in assay [4] it was 0.0897 nM; in assay [5] it was 0.667 nM; in assay [6] it was 5.11 nM. The EC50 in assay [7] was found to be 27.6 nM. Moreover, the “Internalization % TOP” value in assay [7] is on record as 58.2%.

In the case of “H-Y[Aib]QGTFTSDFSK[αMeL]LDKK([AEEA-γGlu-C20 diacid])AQ[Aib]AFIEYLLAGGPSSGEPPPSGE[AEEA]-NH2 [Example 33]”, the EC50 stood at 70.7 nM in assay [1]; 436 nM in assay [2]; 1310 nM in assay [3]; 0.285 nM in assay [4]; 1.71 nM in assay [5]; 7.04 nM in assay [6]. In assay [7], the half-maximal effective concentration (EC50) came out at 106 nM. For the same substance, in assay [7], the “Internalization % TOP” value is on record as 64.6%.

Regarding “H-Y[Aib]QGTFTSDFSK[αMeL]LDKK([AEEA-γGlu-C20 diacid])AQ[Aib]AFIEYLLEGGPSSGAPPPGGS-NH2 [Example 18]”, the EC50 came out at 59.6 nM in assay [1]; 561 nM in assay [2]; 1210 nM in assay [3]; 0.337 nM in assay [4]; 2.31 nM in assay [5]; 2.7 nM in assay [6]. In assay [7], the EC50 came to 91.8 nM. In addition, the “Internalization % TOP” value in assay [7] amounted to 74.1%.

In the case of “H-Y[Aib]QGTFTSDFS[Orn][αMeL]LDKK([AEEA-γGlu-C20 diacid])AQ[Aib]AFIEWLLEGGPSSGAPPPSGS-NH2 [Example 78]”, the EC50 in assay [1] came out at 78.4 nM; in assay [2] it was 560 nM; in assay [3] it was 2640 nM; in assay [4], 0.228 nM; in assay [5] it was 1.93 nM; in assay [6] it was 7.06 nM. Also, the EC50 in assay [7] worked out at 78.2 nM. Besides, the “Internalization % TOP” value in assay [7] stood at 55%.

Regarding “H-Y[Aib]QGTFTSDFS[Orn][αMeL]LDKK([AEEA-γGlu-C18 diacid])AQ[Aib]AFIEYLLAGGPSSGAPPPSGSE-NH2 [Example 90]”, the EC50 in assay [1] was 24.9 nM; in assay [2] it was 371 nM; in assay [3], 990 nM; in assay [4], 0.173 nM; in assay [5], 2.68 nM; in assay [6], 9.58 nM. In addition, in assay [7], the EC50 came out at 70.8 nM. For the same substance, in assay [7], the “Internalization % TOP” value was determined as 49.8%.

For the substance “H-Y[Aib]QGTFTSDFSK[αMeL]LDKK([AEEA-γGlu-C18 diacid])AQ[Aib]AFIEYLLEGGPSSGAPPPSGS-NH2 [Example 141]”, the EC50 turned out to be 62.1 nM in assay [1]; 562 nM in assay [2]; 877 nM in assay [3]; 0.21 nM in assay [4]; 1.96 nM in assay [5]; 1.77 nM in assay [6]. Moreover, the EC50 in assay [7] came out at 95.3 nM. In addition, the “Internalization % TOP” value in assay [7] is reported as 64.1%.
